Legend:
Type in all cases: cell-based, human
OVCAR5 cells = assay: AFM cell stiffness (Young's modulus, peak indentation depth) of cisplatin-sensitive OVCAR5 cells; details: for Young's modulus E (mean±SEM), peak 2 / Young's modulus E (mean±SEM), peak 1: about 24 hours
Excerpt: (§1) SKOV3 (American Type Culture Collection; Manassas, Va.) and OVCAR5 cells were maintained in Dulbecco's Modified Eagle's Medium supplemented with about 10% fetal bovine serum. SKOV3-CisR and OVCAR5-CisR cells were established by exposing the parental SKOV3 and OVCAR5 cell lines, respectively, to increasing concentrations of cisplatin over 12 months. OVCAR5-CisR cells are about 20- and SKOV3-CisR cells are about 8-fold more resistant to cisplatin compared to their syngeneic cisplatin sensitive counterparts. Cells were grown at about 37° C. in a humidified atmosphere containing about 5% CO2 and about 95% air.
(§2) Cells were treated with about 1 or about 5 μg/mL cisplatin (Sigma-Aldrich, St. […]
(§3) A protocol was established to exclude unhealthy or apoptotic cells from measurements by staining cells with AnnexinV (Sigma-Aldrich) as an indicator of apoptosis. Stained cells are dead or apoptotic, and typically float away and are no longer attached to a surface. Cells that stained positive for AnnexinV were excluded from AFM analysis. Measurements were conducted using a Catalyst AFM (Bruker Instruments, Santa Barbara, Calif.) with a combined inverted optical/confocal microscope (Zeiss Corp., Thornwood, N.Y.). This combination permits lateral positioning of an AFM tip over the cell center with submicron precision. AFM images and mechanical measurements were collected in contact mode using sharpened silicon nitride cantilevers with experimentally determined spring constants of about 0.02 N/m and a tip radius of less than about 20 nm. Mechanical measurements were obtained at about 37° C. with force measurements recorded at a pulling rate of about 1 Hz. Force-displacement curves were recorded for determination of Young's modulus values. Conversion of force-displacement curves to force-indentation curves allows the determination of the local cell surface elasticity or stiffness (Young's modulus, E). The measurement outcomes include averaged E values. Nanoscope files were converted to Igor. 6.0 (Wavemetrix) and used to generate two-dimensional (2D) stiffness matrix of the cell populations, allowing more precise determination of localized cell stiffness. AFM measurements were obtained in at least 60 cells in three different experiments. The AFM tip was precisely positioned (within micron range) on top of the nucleus using motorized stage and inverted optical view of the combined confocal-AFM microscope.
(§4) Data were expressed as mean±standard error of mean (SEM). Statistical significance was identified by Student's t-test or one-way analysis of variance (Origin 8.0, OriginLab Corporation, Northmpton, Mass.) for the difference among treated pairs.

OVCAR5-CisR cells [1] = assay: AFM cell stiffness (Young's modulus, peak indentation depth) of cisplatin-resistant OVCAR5-CisR cells
Excerpt: as §1, §2, §3, §4

OVCAR5-CisR cells [2] = assay: Resistance to cisplatin of OVCAR5-CisR cells versus parental OVCAR5; details: OVCAR5-CisR vs OVCAR5
Excerpt: as §1

SKOV3-CisR cells = assay: Resistance to cisplatin of SKOV3-CisR cells versus parental SKOV3; details: SKOV3-CisR vs SKOV3
Excerpt: as §1

[3] = about 5 μM cytochalasin D alone

Structure (SMILES) | Young's modulus E (OVCAR5 cells; [3]) [kPa] | Young's modulus E (OVCAR5-CisR cells [1]; [3]) [kPa] | Young's modulus E (mean±SEM), peak 2 (OVCAR5 cells; about 1 μg/mL cisplatin) [kPa] | Young's modulus E (mean±SEM), peak 1 (OVCAR5 cells; about 1 μg/mL cisplatin, untreated E=0.64±0.03 kPa) [kPa] | Young's modulus E (mean±SEM), peak 1 (OVCAR5 cells; about 5 μg/mL cisplatin) [kPa] | Young's modulus E (mean±SEM), peak 2 (OVCAR5 cells; about 5 μg/mL cisplatin) [kPa] | peak indentation depth (OVCAR5 cells; cisplatin 1 μg/mL, untreated 1.2±0.04 μm) [μm] | peak indentation depth (OVCAR5 cells; cisplatin 5 μg/mL) [μm] | difference in cell stiffness between untreated and cisplatin-treated cells (OVCAR5-CisR cells [1]; cisplatin 5 μg/mL, P=0.45) | localized peak indentation (OVCAR5-CisR cells [1]; cisplatin 5 μg/mL, untreated 0.5±0.06 μm) [μm] | Young's modulus E, peak 1 (OVCAR5-CisR cells [1]; cisplatin 5 μg/mL, untreated 1.0±0.03 kPa) [kPa] | Young's modulus E, peak 2 (OVCAR5-CisR cells [1]; cisplatin 5 μg/mL, untreated 1.84±0.1 kPa) [kPa] | fold more resistant to cisplatin compared to syngeneic cisplatin sensitive counterpart (OVCAR5-CisR cells [2]) [fold] | fold more resistant to cisplatin compared to syngeneic cisplatin sensitive counterpart (SKOV3-CisR cells) [fold]
C=C1[C@@H](C)[C@H]2[C@H](Cc3ccccc3)NC(=O)[C@]23[C@H](OC(C)=O)/C=C/[C@@](C)(O)C(=O)[C@@H](C)C/C=C/[C@H]3[C@@H]1O [cytochalasin D] | 0.34±0.02 | 0.45±0.01 | – | – | – | – | – | – | – | – | – | – | – | –
N.N.[Cl][Pt][Cl] [cisplatin, cis-diamminedichloridoplatinum(II)] | – | – | 1.23±0.04 | 0.53±0.01 | 0.65±0.01 | 1.28±0.06 | 0.7±0.03 | 0.5±0.03 | no significant difference | 0.5±0.04 | 0.97±0.01 | 1.88±0.05 | 20 | 8

Source: patent US20130266665A1, “NANO[…] DISEASE THERAPY” (priority 2012, published 2013)
